Measurements published in the NIST ThermoML archive (doi:10.1021/je060411g).
Numbers after ± are expanded uncertainties.

Assays:
[1] = Molar enthalpy of transition or fusion

| SMILES | Molar enthalpy of transition or fusion ([1]; Crystal 1) | Molar enthalpy of transition or fusion ([1]; Crystal 2) | Triple point temperature (Crystal 1) | Triple point temperature (Crystal 2) | Molar enthalpy of transition or fusion ([1]; Crystal 3) | Triple point temperature (Crystal 3) | Glass transition temperature (Adiabatic calorimetry) | Triple point temperature (Crystal) | Glass transition temperature |
| --- | --- | --- | --- | --- | --- | --- | --- | --- | --- |
| CC(C)(C)CO [2,2-dimethyl-1-propanol] | 2.9 ± 0.2 kJ/mol | 4.1 ± 0.2 kJ/mol | 328.2 ± 0.4 K | 233.3 ± 1 K | – | – | – | – | – |
| CCC(C)(C)O [2-methylbutan-2-ol] | 2 ± 0.2 kJ/mol | – | 264.7 ± 0.4 K | 215 ± 1 K | 0.9 ± 0.1 kJ/mol | 145.8 ± 0.4 K | – | – | – |
| CCC(C)CO (stereo not drawn) [2-methyl-1-butanol] | – | – | – | – | – | – | -155 ± 5 °C | – | – |
| CCC(O)CC [3-pentanol] | 1.66 ± 0.2 kJ/mol | – | – | – | – | – | – | 203.2 ± 0.4 K | -143 ± 5 °C |
